Values joined by “and” are separate entries in the source; they are usually repeats but may differ in a detail not shown here. Identical values can stand only once. Like-named read-outs stand apart in the source and are kept apart here.
Key:
MDAMB231 cells = experiment: crystal violet (CV) proliferation assay, MDAMB231; type: cell-based; conditions: Homo sapiens, MDA-MB-231, MDAMB231 (PKCβ1^high, Rb^positive) 2000 cells
Procedure: (§1) Cell proliferation rates were determined using crystal violet assays. One thousand cells per well were plated in 96 well tissue culture plates and treated the following day with a bifunctional compound or control for 7 days in replicates of 8. Cells were fixed with 25% glutaraldehyde for 10 minutes with shaking, washed 5 times with distilled water, stained with a 1% crystal violet solution (solubilized in 25% methanol) for 10 minutes, washed again 5 times and allowed to dry. De-staining was performed using […] sodium citrate in 50% ethanol followed by quantification using a 96 well spectrophotometer set at an absorbance of 550 nm.

MDAMB436 cells = experiment: crystal violet (CV) proliferation assay, MDAMB436; type: cell-based; conditions: Homo sapiens, MDA-MB-436, MDAMB436 (PKCβ1^low, Rb^negative) 2000 cells
Procedure: as §1

KURAMOCHI cells = experiment: crystal violet (CV) proliferation assay, KURAMOCHI; type: cell-based; conditions: KURAMOSHI (PKCβ1^low) 1000 cells/well; read-out: Approximate IC50
Procedure: as §1
Based on the potent anti-proliferative activity of ENDX-PROTACs TC-Pr-006, TC-Pr-007, TC-Pr -008, and TC-Pr -009 in TNBC cells, the efficacy of these compounds for inhibiting the growth of ovarian cancer cells was tested. This analysis utilized KURAMOCHI cells, which represent the high-grade serous subtype (the most malignant form that accounts for 70% of all ovarian cancers and associates with poor clinical outcome) and MDAH-2774 cells, which represent endometrioid ovarian cancer and accounts for 20% of all ovarian cancer. PKCβ1 was confirmed to be expressed in both ovarian cancer cell line models, with MDAH-2774 cells expressing higher amounts of PKCβ1 compared to KURAMOCHI cells (FIG. 5A). […]

[1] = pharmacokinetics in female CD1 mice, plasma by UPLC-MS/MS; type: in vivo; conditions: for Tmax: read-out: time of peak plasma concentration (converted); for half-life: read-out: terminal half-life (converted)
Procedure: ENDX PROTAC 7 and PROTAC 9 pharmacokinetics were characterized in female CD1 mice. Blood samples were collected from mice anesthetized under isoflurane via retro-orbital eye bleed into tubes containing EDTA and immediately chilled on ice. NaF was added to the EDTA collection tubes to help stabilize the drug in whole blood for the second IV and IP studies with ENDX PROTAC 9, and for the IV and oral studies with PROTAC 7. Plasma and red blood cells were separated immediately by centrifugation in a refrigerated centrifuge at 4°C. The plasma was transferred to a separate tube and immediately frozen at -20°C.
For IV dosing, ENDX PROTAC 9 was dissolved in 10% DMSO, 10% PEG 400, and 80% normal saline for a final concentration of 0.2 mg/mL ENDX PROTAC 9 for the 1 mg/kg IV doses. ENDX PROAC 7 was dissolved in 15% DMSO, 9.44% PEG400, and 55% normal saline for a final concentration of 0.19 mg/mL for the 1 mg/kg IV doses. Blood samples (3 mice per time-point) were collected 5 minutes, 15 minutes, 0.5 hour, 1 hour, 2 hours, 4 hours, 8 hours, and 24 hours after administration of the ENDX PROTAC. […] For oral dosing, ENDX PROTAC 9 (10 mg/kg) and ENDX PROTAC 7 (10 mg/kg) were suspended in 1 mM ascorbic acid:PEG400, 1:1 v/v for a final concentration of 1.0 mg/mL ENDX PROTAC. Blood samples (three mice per time-point) were collected 15 minutes, 0.5 hour, 1 hour, 2 hours, 4 hours, 6 hours, 8 hours, and 24 hours after administering the ENDX PROTAC. For I.P. dosing, ENDX PROTAC 9 (4 mg/kg) was prepared in 1 mM ascorbic acid:PEG400, 1:1 v/v for a final concentration of 0.4 mg/mL ENDX PROTAC 9. Blood samples (three mice per time-point) were collected 15 minutes, 0.5 hour, 1 hour, 2 hours, 4 hours, 6 hours, 8 hours, and 24 hours after administration. Plasma concentrations of ENDX PROTAC 7 and 9 were measured using UPLC-MS/MS.

[2] = mouse, plasma, iv, 1 mg/kg, I.V. 1 mg/kg, first study without NaF
[3] = mouse, plasma, iv, 1 mg/kg, I.V. 1 mg/kg, second study with NaF

IC50 (MDAMB231 cells): 131 nM
IC50 (MDAMB436 cells): 64 nM
stability in whole blood ([1]; inferred from IV studies with and without NaF): unstable in whole blood
Cmax ([1]; mouse, plasma, ip, 4 mg/kg, I.P. 4 mg/kg, read-out: peak plasma concentration): 135 ng/mL
bioavailability ([1]; mouse, plasma, ip, I.P. 4 mg/kg, read-out: bioavailability of the I.P. dose): 225%
Tmax ([1]; mouse, plasma, ip, I.P. 4 mg/kg): 30 min
clearance [1, 2]: 730 mL/min/kg
half-life [1, 2]: 60 min
Cmax ([1]; mouse, plasma, iv, 1 mg/kg, I.V. 1 mg/kg, samples collected without added NaF, read-out: peak plasma concentration): 47.2 ng/mL
clearance [1, 3]: 478 mL/min/kg
half-life [1, 3]: 39.6 min
Cmax ([1]; mouse, plasma, iv, 1 mg/kg, I.V. 1 mg/kg, second study, NaF added to EDTA tubes, read-out: peak plasma concentration): 70.9 ng/mL
concentration at 0.5 h ([1]; mouse, plasma, iv, 1 mg/kg, plasma, IV 1 mg/kg, EDTA without NaF, 30 minutes, individual mice, read-out: Concentration ENDX PROTAC 9): 1.81 ng/mL
concentration at 0.5 h ([1]; mouse, plasma, iv, 1 mg/kg, plasma, IV 1 mg/kg, all data (both IV studies), 30 minutes, read-out: Concentration ENDX PROTAC 9): 2.83 ng/mL
Tmax ([1]; mouse, plasma, iv, I.V. 1 mg/kg, samples collected without added NaF): 5 min
Cmax ([1]; mouse, plasma, po, 10 mg/kg, oral 10 mg/kg, read-out: average peak plasma concentration): 11.1 ng/mL
concentration at 0.5 h ([1]; mouse, plasma, po, 10 mg/kg, plasma, PO 10 mg/kg, 30 minutes, individual mice, read-out: Concentration ENDX PROTAC 9): 0.74 ng/mL
concentration at 8 h ([1]; mouse, plasma, po, 10 mg/kg, plasma, PO 10 mg/kg, 480 minutes, individual mice, read-out: Concentration ENDX PROTAC 9): 0.08 ng/mL
concentration at 0.25 h ([1]; mouse, plasma, po, 10 mg/kg, plasma, TABLE 7, titled PO pk (10 mg/kg), 15 minutes, individual mice, read-out: Concentration ENDX PROTAC 9): 108 ng/mL
concentration at 0.5 h ([1]; mouse, plasma, po, 10 mg/kg, plasma, TABLE 7, titled PO pk (10 mg/kg), 30 minutes, individual mice, read-out: Concentration ENDX PROTAC 9): 166 ng/mL
concentration at 1 h ([1]; mouse, plasma, po, 10 mg/kg, plasma, TABLE 7, titled PO pk (10 mg/kg), 60 minutes, individual mice, read-out: Concentration ENDX PROTAC 9): 131 ng/mL
bioavailability ([1]; mouse, plasma, oral 10 mg/kg vs IV 1 mg/kg, read-out: Oral bioavailability): 8.8%
Tmax ([1]; mouse, plasma, oral 10 mg/kg): 60 min
Concentration ENDX PROTAC 9 ([1]; plasma, IV 1 mg/kg, EDTA without NaF, 30 minutes, individual mice, listed as ENDX PROTAC 9, 1 mg/kg): 1.662 ng/mL
Concentration ENDX PROTAC 9 ([1]; plasma, IV 1 mg/kg, EDTA without NaF, 120 minutes, individual mice, listed as ENDX PROTAC 9, 1 mg/kg): 0.8988 ng/ml and 0.4446 ng/ml and BLD
Concentration ENDX PROTAC 9 ([1]; plasma, IV 1 mg/kg, EDTA without NaF, 240 minutes, individual mice, listed as ENDX PROTAC 9, 1 mg/kg): BLD and 0.0197 ng/ml and 0.3141 ng/ml
Concentration ENDX PROTAC 9 ([1]; plasma, IV 1 mg/kg, EDTA without NaF, 480 minutes, individual mice, listed as ENDX PROTAC 9, 1 mg/kg): 0 ng/ml and BLD (2×)
Concentration ENDX PROTAC 9 ([1]; plasma, IV 1 mg/kg, EDTA without NaF, 1440 minutes, individual mice, listed as ENDX PROTAC 9, 1 mg/kg): BLD and 0 ng/ml (2×)
Concentration ENDX PROTAC 9 ([1]; plasma, IV 1 mg/kg, all data (both IV studies), 30 minutes, listed as ENDX PROTAC 9, 1 mg/kg): 1.662 ng/mL
Concentration ENDX PROTAC 9 ([1]; plasma, IV 1 mg/kg, all data (both IV studies), 120 minutes, listed as ENDX PROTAC 9, 1 mg/kg): BLD
Concentration ENDX PROTAC 9 ([1]; plasma, IV 1 mg/kg, all data (both IV studies), 240 minutes, listed as ENDX PROTAC 9, 1 mg/kg): BLD
Concentration ENDX PROTAC 9 ([1]; plasma, IV 1 mg/kg, second study (NaF), 15 minutes, individual mice, listed as ENDX PROTAC 9, 1 mg/kg): 8.2 ng/mL and 33.8 ng/mL and 10.72 ng/mL
Concentration ENDX PROTAC 9 ([1]; plasma, IV 1 mg/kg, second study (NaF), 240 minutes, individual mice, listed as ENDX PROTAC 9, 1 mg/kg): 0.19 ng/mL and 1.11 ng/mL and 0.39 ng/mL
Concentration ENDX PROTAC 9 ([1]; plasma, PO 10 mg/kg, 15 minutes, individual mice, listed as ENDX PROTAC 9, 10 mg/kg): 6.95 ng/mL and 4.77 ng/mL and 2.11 ng/mL
Concentration ENDX PROTAC 9 ([1]; plasma, PO 10 mg/kg, 30 minutes, individual mice, listed as ENDX PROTAC 9, 10 mg/kg): 0.58 ng/mL and 1.05 ng/mL
Concentration ENDX PROTAC 9 ([1]; plasma, PO 10 mg/kg, 60 minutes, individual mice, listed as ENDX PROTAC 9, 10 mg/kg): 6.78 ng/mL and 15.8 ng/mL and 10.6 ng/mL
Concentration ENDX PROTAC 9 ([1]; plasma, PO 10 mg/kg, 120 minutes, individual mice, listed as ENDX PROTAC 9, 10 mg/kg): 0.25 ng/ml and BLD* and 0.55 ng/ml
Concentration ENDX PROTAC 9 ([1]; plasma, PO 10 mg/kg, 240 minutes, individual mice, listed as ENDX PROTAC 9, 10 mg/kg): 0.9 ng/mL and 0.16 ng/mL and 0.14 ng/mL
Concentration ENDX PROTAC 9 ([1]; plasma, PO 10 mg/kg, 360 minutes, individual mice, listed as ENDX PROTAC 9, 10 mg/kg): 2.61 ng/ml and BLD and 0.05 ng/ml
Concentration ENDX PROTAC 9 ([1]; plasma, PO 10 mg/kg, 480 minutes, individual mice, listed as ENDX PROTAC 9, 10 mg/kg): BLD
Concentration ENDX PROTAC 9 ([1]; plasma, PO 10 mg/kg, 1440 minutes, individual mice): BLD
Concentration ENDX PROTAC 9 ([1]; plasma, TABLE 7, titled PO pk (10 mg/kg), 15 minutes, individual mice, listed as ENDX PROTAC 9, 10 mg/kg): 111.19 ng/mL and 133.09 ng/mL
Concentration ENDX PROTAC 9 ([1]; plasma, TABLE 7, titled PO pk (10 mg/kg), 30 minutes, individual mice, listed as ENDX PROTAC 9, 10 mg/kg): 156.42 ng/mL and 83.56 ng/mL
Concentration ENDX PROTAC 9 ([1]; plasma, TABLE 7, titled PO pk (10 mg/kg), 60 minutes, individual mice, listed as ENDX PROTAC 9, 10 mg/kg): 141.51 ng/mL and 93.93 ng/mL
Concentration ENDX PROTAC 9 ([1]; plasma, TABLE 7, titled PO pk (10 mg/kg), 360 minutes, individual mice, listed as ENDX PROTAC 9, 10 mg/kg): 1.64 ng/mL and 0.75 ng/mL and 2.62 ng/mL
Concentration ENDX PROTAC 9 ([1]; plasma, TABLE 7, titled PO pk (10 mg/kg), 480 minutes, individual mice, listed as ENDX PROTAC 9, 10 mg/kg): 7.23 ng/mL and 1.2 ng/mL
Concentration ENDX PROTAC 9 ([1]; plasma, TABLE 7, titled PO pk (10 mg/kg), 1440 minutes, individual mice, listed as ENDX PROTAC 9, 10 mg/kg): 1.01 ng/mL and 0.33 ng/mL and 0.12 ng/mL
SMILES: CCC(=C(c1ccc(O)cc1)c1ccc(OCCN(C)C(=O)COCCOCCNC(=O)Cc2ccc3c(c2)CN(C2CCC(=O)NC2=O)C3=O)cc1)c1ccccc1 (stereo not shown) [TC-Pr-009, 2-[2-(2-2-[2-(2,6-dioxopiperidin-3-yl)-1-oxo-2,3-dihydro-1H-isoindol-5-yl]acetamidoethoxy)ethoxy]-N-(2-4-[1-(4-hydroxyphenyl)-2-phenylbut-1-en-1-yl]phenoxyethyl)-N-methylacetamide]
IC50 (KURAMOCHI cells): 1000 to 10000 nM
Concentration ENDX PROTAC 9 ([1]; plasma, IV 1 mg/kg, EDTA without NaF, 5 minutes, individual mice, listed as ENDX PROTAC 9, 1 mg/kg): 49.449 ng/mL and 47.9659 ng/mL and 12.7855 ng/mL
Concentration ENDX PROTAC 9 ([1]; plasma, IV 1 mg/kg, EDTA without NaF, 15 minutes, individual mice, listed as ENDX PROTAC 9, 1 mg/kg): 44.1034 ng/mL and 9.4992 ng/mL and 7.241 ng/mL
Concentration ENDX PROTAC 9 ([1]; plasma, IV 1 mg/kg, EDTA without NaF, 60 minutes, individual mice, listed as ENDX PROTAC 9, 1 mg/kg): 0.5069 ng/mL and 0.2706 ng/mL and 0.0179 ng/mL
Concentration ENDX PROTAC 9 ([1]; plasma, IV 1 mg/kg, second study (NaF), 5 minutes, individual mice, listed as ENDX PROTAC 9, 1 mg/kg): 86.31 ng/mL and 91.46 ng/mL and 34.87 ng/mL
Concentration ENDX PROTAC 9 ([1]; plasma, IV 1 mg/kg, second study (NaF), 60 minutes, individual mice, listed as ENDX PROTAC 9, 1 mg/kg): 1.18 ng/mL and 1.26 ng/mL and 12.64 ng/mL
Concentration ENDX PROTAC 9 ([1]; plasma, TABLE 7, titled PO pk (10 mg/kg), 120 minutes, individual mice, listed as ENDX PROTAC 9, 10 mg/kg): 60.32 ng/mL and 106.7 ng/mL and 40.51 ng/mL
Concentration ENDX PROTAC 9 ([1]; plasma, TABLE 7, titled PO pk (10 mg/kg), 240 minutes, individual mice, listed as ENDX PROTAC 9, 10 mg/kg): 17.29 ng/mL and 5.09 ng/mL and 30.55 ng/mL
